{"source": "patent US20210401867A1", "about": "“PHOTOSENSITIZERS AND METHOD OF TREATING CANCER USING THE SAME” (Cheng-Wen Wu, priority 2018, published 2021)", "key": {"FaDu-RFP+ cells": {"test_system": "FaDu-RFP+ cells", "test": "in vivo IdU incorporation rate in FaDu-RFP+ solid tumors (flow cytometry)", "design": "species or system mouse", "description": "An injection concentration of IdU is selected based on a flow cytometry analysis on the incorporation rate of IdU in tumor cells. Referring to FIG. 13A, a schematic diagram of an in vivo animal experiment for determining an injection concentration of IdU is provided in accordance with an exemplary embodiment of the present disclosure. FaDu cells are marked with RFP (red fluorescent protein) and […]. The malignant solid tumors formed by FaDu-RFP+ cells on the tumorigenic mouse are injected with different concentrations of IdU: 100 μg, 50 μg, 20 μg, 10 μg, 5 μg, or 2 μg per 100 μl PBS. 4 hours later, the tumorigenic mouse are sacrificed and the solid tumors are isolated to single cells. The single cells from the solid tumors are then subjected to antibody staining and flow cytometry analyses. Referring to FIG. 13B, a flow cytometry result of the experiments described by FIG. 13A, is provided in accordance with an exemplary embodiment of the present disclosure. The horizontal axis represents the RFP signals, and the vertical axis represents the GFP signals. […] Only 6.232% of FaDu cells are detected with GFP in the left panel of FIG. 13B. The right panel of FIG. 13B are FaDu cells treated with 50 μg of IdU, an area 132 is FaDu cells detected with GFP signals. 19.088% of FaDu cells are detected with GFP signals in the right panel of FIG. 13B. […]"}, "[1]": {"test_system": "subcutaneous malignant solid tumor comprised of FaDu cells", "test": "in vivo tumor growth of subcutaneous FaDu solid tumor on tumorigenic mice", "settings": "for tumor growth inhibition rate: end of the in vivo test; for relative proliferation rate of solid tumor: repeated after 7 days", "method": "FIG. 12 is a schematic diagram of an in vivo animal experiment, in accordance with an exemplary embodiment of the present disclosure. A subcutaneous malignant solid tumor comprised of FaDu cells (tumor size is about 200 mm^3) on the tumorigenic mice is injected with 0.5 μg/μl of IdU. 4 hours after the injection, the solid tumor is then irradiated by 4 Gy 33 keV NR. The IdU-NR treatment are repeated on the same tumor after 7 days. Other groups of mouse are only injected with 50 μg of IdU or only irradiated with 4 Gy 33 keV NR, and the IdU injection or the NR irradiation is repeated on the same tumor after 7 days. The control group is the mice without NR, IdU, or IdU-NR treatment.\nThe subcutaneous malignant solid tumor comprised of FaDu cells on the tumorigenic mice is treated with IdU, NR, or IdU and NR, following the same experiment procedure as depicted in FIG. 12. The relative proliferation rates of the solid tumors are calculated by measuring the size of the solid tumor on Days 3, 7, 10, 14, 17, 21, 24, and 28, respectively. […] The solid tumor of IdU-NR group has the lowest relative proliferation rate among other groups, and the relative proliferation rate of IdU-NR group is even lower than 100% (p<0.05), this indicates the tumor size is smaller after the IdU and NR treatment.\nTo further investigate a therapeutically effective dosage for the combination of IdU and NR, another series of in vivo experiments are conducted, see FIGS. 15A-15F. The experiment procedure is the same with the procedure described in FIG. 12. FIG. 15A and FIG. 15B show cells irradiated with 2.25 Gy NR and 2.25 Gy RS2000, FIG. 15C and FIG. 15D show cells irradiated with 4.5 Gy NR and 4.5 Gy RS2000, and FIG. 15E and FIG. 15F show cells irradiated with 9 Gy NR and 9 Gy RS2000, in accordance with exemplary embodiments of the present disclosure. Control groups in FIGS. 15A-15F are FaDu cells isolated from the subcutaneous solid tumor of the tumorigenic mouse without treatment of IdU or any radiation. The tumor growth index in FIGS. 15A-15F are calculated based on tumor volumes: for each of the tumorigenic mouse, the tumor volume on Day 0 is set as 100%, and relative volume percentages in the following days relative to Day 0 are presented as the tumor growth index (%)."}, "γH2AX": {"test_system": "γH2AX", "test": "Western blotting for pATM, γH2AX and c-CASP3 in FaDu cells", "format": "cell-based, human", "settings": "10 μM IdU and 2 Gy of NR, 30 minutes after irradiation, among all treatments", "method": "To investigate the mechanism associated with the combination of IdU and NR in the Auger molecular therapy, molecular markers involving DNA damage and apoptosis are analyzed. In vitro FaDu cells are treated with 10 μM of IdU, and irradiated by 2Gy of NR or RS2000. 30 minutes after above treatments, FaDu cells are subjected to Western blot to determine the expression of several proteins relevant to DNA damage and apoptosis: phosphor-ATM (pATM) is a protein kinase activated by DNA double-strand-breaks (DSBs), and it phosphorylates several key factors to initiate DNA damage checkpoint and repair; γH2AX is one of the targets of pATM, and it forms the foundation of chromatin-based signaling cascades at DSBs sites, and it is widely considered as a highly specific and sensitive marker for quantitative evaluation of DSB; and CASP3 is a marker for increased apoptosis, wherein c-CASP3 is a cleaved CASP3 formed when apoptotic signals are present in the cell. The subcutaneous tumor also subjected to Western blot 3 days after the above treatments.\nFIGS. 17A and 17B are results of Western blotting for protein expression levels of pATM, γH2AX, and c-CASP3, in accordance with exemplary embodiments of the present disclosure. FIG. 17A is the result at 30 minutes after irradiation, and FIG. 17B is the result at 3 days after irradiation, wherein β-ACTIN are served as an internal control in both figures. […]"}}}
{"smiles": "O=c1[nH]c(=O)n([C@H]2C[C@H](O)[C@@H](CO)O2)cc1I", "note": "[IdU, iododeoxyuridine]", "values": [{"measurement": "IdU incorporation rate among injected concentrations", "setting": "FaDu-RFP+ cells; 50 μg IdU/100 μl PBS versus 100, 20, 10, 5, 2 μg", "value": "best IdU incorporation rate"}, {"measurement": "FaDu cells detected with GFP signals (IdU incorporation)", "setting": "FaDu-RFP+ cells; 50 μg of IdU injected into tumor, 4 hours", "value": 19.088, "unit": "%"}, {"measurement": "tumor growth inhibition rate", "setting": "[1]; IdU 50 μg and 4.5 Gy NR", "value": 68, "unit": "%"}, {"measurement": "tumor growth inhibition rate", "setting": "[1]; IdU 50 μg and 9 Gy NR", "value": 83, "unit": "%"}, {"measurement": "tumor growth versus RS2000 only", "setting": "[1]; IdU 50 μg and RS2000 (2.25, 4.5, 9 Gy)", "value": "does not significantly inhibit the tumor growth"}, {"measurement": "relative proliferation rate of solid tumor", "setting": "[1]; IdU-NR group, 0.5 μg/μl IdU plus 4 Gy 33 keV NR, p<0.05", "value": "lower than 100%"}, {"measurement": "relative proliferation rate of solid tumor", "setting": "[1]; IdU-only group, 50 μg of IdU, to Day 28", "value": "lower relative proliferation rate than the control group"}, {"measurement": "tumor growth (tumor growth index)", "setting": "[1]; treated only with IdU, 50 μg", "value": "not inhibited"}, {"measurement": "γH2AX expression (Western blot)", "setting": "γH2AX", "value": "most γH2AX expression"}]}
